In US20230118435A1, “COMPOSITION COMPRISING AN AVENANTHRAMIDE WITH IMPROVED SKIN PENETRATION” (priority 2020, published 2023):

Test: Skin PAMPA (Parallel Artificial Membrane Permeability Assay) permeation from a cosmetic formulation
Type: in vitro ADME
Settings: for Mean amount per ml acceptor liquid: 0.05% in formulation, no penetration enhancer; for Modulation (%) of penetration / increase of permeation / Modulation (%) of penetration: 3% 1,2-pentanediol (Hydrolite-5); for Penetration behaviour compared with DhAvn D: absence of a penetration enhancer, FIG. 1
Description: The permeation of Avn A from a cosmetic formulation across a stratum corneum-mimicking artificial membrane was evaluated using the Skin PAMPA™ (Parallel Artificial Membrane Permeability Assay) model.
The primary penetration barrier of the skin, the stratum corneum (SC), consists of corneocytes embedded in extracellular lipids. The lipid mixture of the Skin PAMPA™ membrane consists of similar quantities of certramides (synthetic ceramide analogues), stearic acid and cholesterol as the SC. The Skin PAMPA™ sandwich consists of two 96-well plates, wherein one plate is formed so as to sit precisely under the plate that contains a porous lipid-impregnated filter. The wells of the bottom plate were filled with formulation, and the wells of the top plate were filled with acceptor solution. The plates were then stacked and incubated. The Skin PAMPA™ model has been used to evaluate semi-solid formulations and found to correlate well with ex vivo permeation studies.
(§1) Heat Phase A and B separately to 70° C.; disperse Phase C in B; add Phase BC to Phase A and emulsify using an ULTRA TURRAX® stirrer (2 minutes); allow to cool by using a vane stirrer; add Phase D for neutralising. The formulation was prepared in bulk. The active substances were pre-dissolved in the corresponding additives and were added to the formulation (15 minutes stirring with a vane stirrer).
180 ml of buffer was mixed with 20 ml ethanol (buffer: 20 mmol/l citric acid, pH 5.5); 0.84 g of anhydrous citric acid was dissolved in approximately 180 g of water; the pH was adjusted to 5.5 using a 30% sodium hydroxide solution; following pH adjustment, the solution was filled up with water to 200 g.
After 240 minutes, approximately 180 μl of each Skin PAMPA™ sample was transferred into an HPLC micro-vial.
Equipment: an Agilent HP 1100 connected to a Waters Empower 3 SR3
Column: a Waters XBridge® C18, 3.5 μm, 3.0×50 mm
Column temperature: 30° C. Mobile phase A: water+0.1% formic acid Mobile phase B: methanol Flow: 1.02 ml/min Injection volume: 25 μl
The permeation of Avn L from a cosmetic formulation across a stratum corneum-mimicking artificial membrane was evaluated as described above using the Skin PAMPA™ (Parallel Artificial Membrane Permeability Assay) model.
The permeation of Avn B from a cosmetic formulation across a stratum corneum-mimicking artificial membrane was evaluated as described above using the Skin PAMPA™ (Parallel Artificial Membrane Permeability Assay) model.
Unlike Examples 1 and 2, acceptor solution samples for HPLC analysis of each Skin PAMPA™ sample were this time taken after just 120 minutes.
(§2) The skin permeation of Avn A, Avn B, Avn C and Avn L in comparison to dihydroavenanthramide D (DhAvn D) from a cosmetic formulation across a stratum corneum-mimicking artificial membrane was evaluated as described above using the Skin PAMPA™ (Parallel Artificial Membrane Permeability Assay) model.
as §1, with “glycerine or water or mixtures thereof” for “the corresponding additives”
After 60, 120 and 240 minutes, approximately 180 μl of each Skin PAMPA™ sample was transferred into an HPLC micro-vial and analysed by HPLC.
as §2, with “The” for “The skin”, “of” for “of Avn A, Avn B, Avn C and”, “formulation in the presence of 3% 1,2-pentanediol” for “formulation”

| Mean amount per ml acceptor liquid (0 min) | Mean amount per ml acceptor liquid (60 min) | Mean amount per ml acceptor liquid (120 min) | Mean amount per ml acceptor liquid (240 min) | Increase of permeation (2% Hydrolite-6 (1,2-hexanediol), 240 min) | Modulation (%) of penetration / increase of permeation (240 min) | Increase of permeation (5% Hydrolite-5 (1,2-pentanediol), 240 min) | Increase of permeation (1% Hydrolite-6 (1,2-hexanediol), Example 3, samples taken after 120 minutes) | Increase of permeation (1% SymDiol 68 (1:1 1,2-hexanediol and 1,2-octanediol), Example 3, samples taken after 120 minutes) | Increase of permeation (2% Hydrolite-6 (1,2-hexanediol), Example 3, samples taken after 120 minutes) | Increase of permeation (1% Hydrolite-6 (1,2-hexanediol), 240 min) | Modulation (%) of penetration (60 min) | Modulation (%) of penetration (120 min) | SMILES | Penetration behaviour compared with DhAvn D |
| --- | --- | --- | --- | --- | --- | --- | --- | --- | --- | --- | --- | --- | --- | --- |
| 0 μg per ml | 0.069 μg per ml | 0.188 μg per ml | 0.319 μg per ml | 46% | 19% | 59% | – | – | – | – | – | – | O=C(C=Cc1ccc(O)cc1)Nc1ccc(O)cc1C(=O)O [Avn A, N-(4′-hydroxycinnamoyl)-5-hydroxyanthranilic acid] | weaker penetration behaviour than dehydroavenanthramide D (DhAvn D) |
| 0 μg per ml | 0.038 μg per ml | 0.063 μg per ml | 0.154 μg per ml | – | – | – | 62% | 87% | 76% | – | – | – | COc1cc(C=CC(=O)Nc2ccc(O)cc2C(=O)O)ccc1O [Avn B, N-(4′-hydroxy-3′-methoxycinnamoyl)-5-hydroxyanthranilic acid] | weaker penetration behaviour than dehydroavenanthramide D (DhAvn D) |
| 0 μg per ml | 0.321 μg per ml | 0.532 μg per ml | 1.098 μg per ml | – | – | – | – | – | – | – | – | – | O=C(C=Cc1ccc(O)c(O)c1)Nc1ccc(O)cc1C(=O)O [Avn C, N-(3′-4′-dihydroxycinnamoyl)-5-hydroxyanthranilic acid] | penetrates better than dehydroavenanthramide D (DhAvn D) |
| 0 μg per ml | 0 μg per ml | 0.000 μg per ml | 0.030 μg per ml | – | 125% | – | – | – | – | 160% | – | – | O=C(/C=C/C=C/c1ccc(O)cc1)Nc1ccc(O)cc1C(=O)O [Avn L] | weaker penetration behaviour than dehydroavenanthramide D (DhAvn D) |
| 0.000 μg per ml | 0.225 μg per ml | 0.288 μg per ml | 0.750 μg per ml | – | 57% | – | – | – | – | – | −2% | 58% | O=C(CCc1ccc(O)cc1)Nc1ccccc1C(=O)O [Dihydroavenanthramide D, 2-(3-(4-hydroxyphenyl-)propanoyl-)amidobenzoic acid, reference compound] | – |
